Results taken from the NIST ThermoML archive (doi:10.1016/j.jct.2013.05.051).

Assay: xn = mol fraction of the nth substance listed
Conditions: Liquid, Vibrating tube method

CCCCCCCO [heptan-1-ol] + CCCCCCC
mass density [kg/m3]
Conditions	x1 = 0.1493	x1 = 0.3215	x1 = 0.5226	x1 = 0.6698	x1 = 0.8469	x1 = 1
373.15 K, 50000 kPa	691.2	709.3	735.5	755.9	786.3	800.3
373.15 K, 55000 kPa	695.1	713	739.1	759.2	789.4	803.4
373.15 K, 60000 kPa	698.8	716.6	742.4	762.4	792.4	806.3
373.15 K, 65000 kPa	702.3	720.1	745.7	765.5	795.5	809.2
373.15 K, 70000 kPa	705.7	723.2	748.8	768.5	798.2	811.9
373.15 K, 80000 kPa	712.2	729.5	754.8	774.4	803.7	817.2
373.15 K, 90000 kPa	718.3	735.4	760.4	779.8	808.9	822.3
373.15 K, 100000 kPa	723.8	740.9	765.7	784.9	813.8	827
373.15 K, 110000 kPa	729.2	746.1	770.7	789.8	818.5	831.6
373.15 K, 120000 kPa	734.3	751	775.5	794.4	822.9	835.9
373.15 K, 130000 kPa	739.1	755.7	780.1	798.9	827.3	840.2
373.15 K, 140000 kPa	743.7	760.2	784.5	803.1	831.4	844.1
393.15 K, 100 kPa	–	–	–	–	–	744.9
393.15 K, 1000 kPa	617.4	639.3	670.1	693.9	729.1	745.8
393.15 K, 5000 kPa	625	646.2	676.1	699.4	733.9	750.2
393.15 K, 10000 kPa	633.5	653.8	683	705.6	739.3	755.3
393.15 K, 15000 kPa	640.9	660.7	689.2	711.4	744.5	760.1
393.15 K, 20000 kPa	647.6	666.9	694.9	716.6	749.2	764.6
393.15 K, 25000 kPa	653.8	672.7	700.2	721.6	753.7	768.8
393.15 K, 30000 kPa	659.5	678	705.2	726.3	758	772.9
393.15 K, 35000 kPa	664.8	683.1	709.8	730.6	762.1	776.8
393.15 K, 40000 kPa	669.7	687.7	714.2	734.8	765.9	780.4
393.15 K, 45000 kPa	674.3	692.1	718.3	738.8	769.6	783.9
393.15 K, 50000 kPa	678.7	696.3	722.3	742.6	773.1	787.3
393.15 K, 55000 kPa	683	700.4	726.2	746.3	776.6	790.7
393.15 K, 60000 kPa	687	704.1	729.8	749.7	779.8	793.8
393.15 K, 65000 kPa	690.7	707.8	733.2	753.1	782.9	796.8
393.15 K, 70000 kPa	694.4	711.4	736.7	756.4	786.1	799.8
393.15 K, 80000 kPa	701.3	718.1	743.1	762.5	791.9	805.5
393.15 K, 90000 kPa	707.8	724.3	749.2	768.3	797.5	810.9
393.15 K, 100000 kPa	713.7	730.1	754.7	773.8	802.6	815.9
393.15 K, 110000 kPa	719.4	735.7	760.1	778.9	807.7	820.8
393.15 K, 120000 kPa	724.6	740.8	765	783.8	812.3	825.3
393.15 K, 130000 kPa	729.7	745.7	769.8	788.5	816.8	829.8
393.15 K, 140000 kPa	734.6	750.5	774.5	793	821.3	834
